The supplement of paper PMC10307832

What was measured:
Assay in all cases: relative viability (nuclei count vs DMSO), 5 days (fraction); higher = more cells survive
NCI-H23 = tested on: NCI-H23
Procedure, shortened: (§1)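 The day after seeding in 1536-well plates, lung cancer cell lines were treated by pin tool with a single drug, or with a fixed anchor-drug dose together with five library-drug doses (not always all listed) in √10 steps. After 5 days, a combined fix-and-stain solution (final 0.05% Triton X-100, 1% formaldehyde, 1 ug/ml Hoechst) was added. Nuclei counted on 4× images gave relative viability as treated counts over vehicle counts, reported as the median of duplicate plates.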

NCI-H1650 = tested on: NCI-H1650
Procedure, shortened: as §1

LC-2-ad = tested on: LC-2-ad
Procedure, shortened: as §1

PC-3 [JPC-3] = tested on: PC-3 [JPC-3]
Procedure, shortened: as §1

BEN = tested on: BEN
Procedure, shortened: as §1

NCI-H2228 = tested on: NCI-H2228
Procedure, shortened: as §1

NCI-H1666 = tested on: NCI-H1666
Procedure, shortened: as §1

NCI-H838 = tested on: NCI-H838
Procedure, shortened: as §1

LCLC-97TM1 = tested on: LCLC-97TM1
Procedure, shortened: as §1

NCI-H1915 = tested on: NCI-H1915
Procedure, shortened: as §1

NCI-H520 = tested on: NCI-H520
Procedure, shortened: as §1

A-427 = tested on: A-427
Procedure, shortened: as §1

`O=C(O)CCCCC(CCSCc1ccccc1)SCc1ccccc1` (configuration not stated) [CPI-613] + O=C(c1cc(Cc2n[nH]c(=O)c3ccccc23)ccc1F)N1CCN(C(=O)C2CC2)CC1 [Olaparib] (partner 8 µM) gave a relative viability (NCI-H23; first compound 50 µM) of 0.282, a relative viability (NCI-H23; first compound 158.11 µM) of 0.0911 and a relative viability (NCI-H23; first compound 500 µM) of 0.0098. For the same compound, the relative viability (NCI-H1650; first compound 5 µM) was 0.728, the relative viability (NCI-H1650; first compound 15.81 µM) was 0.791 and the relative viability (NCI-H1650; first compound 50 µM) was 0.749. It also gave a relative viability (NCI-H1650; first compound 158.11 µM) of 0.416, a relative viability (NCI-H1650; first compound 500 µM) of 0.0224 and a relative viability (LC-2-ad; first compound 5 µM) of 0.629. It also gave a relative viability (LC-2-ad; first compound 15.81 µM) of 0.634, a relative viability (LC-2-ad; first compound 50 µM) of 0.653 and a relative viability (LC-2-ad; first compound 158.11 µM) of 0.214. The relative viability (LC-2-ad; first compound 500 µM) was 0.0817, the relative viability (PC-3 [JPC-3]; first compound 5 µM) was 1.11 and the relative viability (PC-3 [JPC-3]; first compound 50 µM) was 0.953. The relative viability (PC-3 [JPC-3]; first compound 158.11 µM) was 0.32, the relative viability (PC-3 [JPC-3]; first compound 500 µM) was 0.1 and the relative viability (BEN; first compound 5 µM) was 1.09. It also gave a relative viability (BEN; first compound 15.81 µM) of 0.853, a relative viability (BEN; first compound 50 µM) of 0.909 and a relative viability (BEN; first compound 158.11 µM) of 0.786. It also gave a relative viability (BEN; first compound 500 µM) of 0.931, a relative viability (NCI-H2228; first compound 5 µM) of 0.532 and a relative viability (NCI-H2228; first compound 15.81 µM) of 0.411. The relative viability (NCI-H2228; first compound 50 µM) was 0.634, the relative viability (NCI-H2228; first compound 158.11 µM) was 0.628 and the relative viability (NCI-H2228; first compound 500 µM) was 0.185. For the same compound, the relative viability (NCI-H1666; first compound 5 µM) was 0.749, the relative viability (NCI-H1666; first compound 15.81 µM) was 0.772 and the relative viability (NCI-H1666; first compound 50 µM) was 0.865. For the same compound, the relative viability (NCI-H1666; first compound 158.11 µM) was 0.304, the relative viability (NCI-H1666; first compound 500 µM) was 0.396 and the relative viability (NCI-H838; first compound 5 µM) was 0.79. It also gave a relative viability (NCI-H838; first compound 15.81 µM) of 0.705, a relative viability (NCI-H838; first compound 50 µM) of 0.721 and a relative viability (NCI-H838; first compound 158.11 µM) of 0.278. The relative viability (NCI-H838; first compound 500 µM) was 0.115, the relative viability (LCLC-97TM1; first compound 5 µM) was 0.322 and the relative viability (LCLC-97TM1; first compound 15.81 µM) was 0.287. For the same compound, the relative viability (LCLC-97TM1; first compound 50 µM) was 0.372, the relative viability (LCLC-97TM1; first compound 158.11 µM) was 0.183 and the relative viability (LCLC-97TM1; first compound 500 µM) was 0.191. The relative viability (NCI-H1915; first compound 5 µM) was 0.25, the relative viability (NCI-H1915; first compound 15.81 µM) was 0.258 and the relative viability (NCI-H1915; first compound 50 µM) was 0.265. For the same compound, the relative viability (NCI-H1915; first compound 158.11 µM) was 0.124, the relative viability (NCI-H1915; first compound 500 µM) was 0.0608 and the relative viability (NCI-H520; first compound 5 µM) was 0.323. For the same compound, the relative viability (NCI-H520; first compound 15.81 µM) was 0.371, the relative viability (NCI-H520; first compound 50 µM) was 0.329 and the relative viability (NCI-H520; first compound 158.11 µM) was 0.136. The relative viability (NCI-H520; first compound 500 µM) was 0.113, the relative viability (A-427; first compound 5 µM) was 0.775 and the relative viability (A-427; first compound 15.81 µM) was 0.7. For the same compound, the relative viability (A-427; first compound 50 µM) was 0.711, the relative viability (A-427; first compound 158.11 µM) was 0.229 and the relative viability (A-427; first compound 500 µM) was 0.177.
